Data on 11 compounds can be found in PubChem BioAssay (NCI).

Among the test systems are MOLT-4 leukemia; HOP-92 NSCLC; SF-268 CNS; SF-295 CNS; NCI-H226 lung; NCI-H23 lung; A498 renal; HCT-116 colon; K-562 leukemia; LOX IMVI melanoma.
Assay in all cases: growth of human tumour cells (NCI), 48 h

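Interpolation was linear, between the two tested concentrations surrounding the appropriate level; five concentrations were tested over 48 hours in 96-well plates. Here, GI50 denotes the concentration required for 50% inhibition of growth. TGI denotes the concentration required for complete inhibition of growth.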

`COC(=O)C1=C(c2ccc(OC)c(OC)c2)OC(c2ccc(OC)c(OC)c2)C1` (centres undefined): the TGI in the experiment on MOLT-4 leukemia is 47.5 µM; in the experiment with HOP-92 NSCLC, over 100 µM; with SF-268 CNS, over 100 µM; in the experiment with SF-295 CNS it was over 100 µM; in the experiment on NCI-H226 lung, over 100 µM; in the experiment on NCI-H23 lung, over 100 µM. Moreover, the TGI was 46.9 µM in the experiment on A498 renal, over 100 µM in the experiment on HCT-116 colon, over 100 µM in the experiment with K-562 leukemia and over 100 µM with LOX IMVI melanoma.

`COc1c(C=O)c2c(c(OC)c1OC)-c1ccc(OC)c(=O)cc1[C@@H](NC(C)=O)CC2`: the TGI with MOLT-4 leukemia was over 17.8 µM; in the experiment on HOP-92 NSCLC, 7.18 µM; with SF-268 CNS it was 30.3 µM; in the experiment with SF-295 CNS it was 0.449 µM; with NCI-H226 lung it was 4.17 µM; in the experiment with NCI-H23 lung, 3.47 µM. For the same compound, the TGI is 14.8 µM with A498 renal, 1.05 µM in the experiment with HCT-116 colon, over 100 µM in the experiment on K-562 leukemia and 49.8 µM in the experiment on LOX IMVI melanoma.

On to `CN(Cc1cnc2nc(N)nc(N)c2n1)c1ccc(C(=O)NC(CCC(=O)O)C(=O)O)cc1C(F)(F)F` (centres undefined), for which the TGI was over 100 µM in the experiment on MOLT-4 leukemia; over 100 µM with HOP-92 NSCLC; over 100 µM in the experiment with SF-268 CNS; over 100 µM in the experiment on SF-295 CNS; over 89 µM in the experiment with NCI-H226 lung; over 100 µM in the experiment with NCI-H23 lung. Further, the TGI in the experiment on A498 renal, in the experiment with HCT-116 colon, in the experiment on K-562 leukemia and with LOX IMVI melanoma was over 100 µM in each case.

On to `CC(C)/C=C1\CCC(CN2CCCC2)C1=O` (centres undefined), for which the TGI with MOLT-4 leukemia was 14.9 µM; in the experiment on HOP-92 NSCLC, 36.1 µM; in the experiment with SF-268 CNS it was 43.6 µM; in the experiment on SF-295 CNS it was over 94.5 µM; with NCI-H226 lung it was 49.6 µM; with NCI-H23 lung, 33.8 µM. For the same compound, the TGI was over 59 µM in the experiment on A498 renal, 20.9 µM in the experiment with HCT-116 colon, 11.9 µM with K-562 leukemia and 42.3 µM with LOX IMVI melanoma.

In the case of `NCCNc1c2c(c(NCCN)c3c(CO)c[nH]c13)C(=O)c1ccccc1C2=O`, the GI50 in the experiment with MOLT-4 leukemia is 3.93 µM; with HOP-92 NSCLC, 24 µM; in the experiment with SF-268 CNS, 0.795 µM; in the experiment with SF-295 CNS it was 6.16 µM; with NCI-H226 lung, 17.9 µM; in the experiment on NCI-H23 lung, 17.2 µM. The GI50 with A498 renal was 41.2 µM; in the experiment on HCT-116 colon, 7.11 µM; in the experiment with K-562 leukemia, 9.54 µM; in the experiment with LOX IMVI melanoma, 8.32 µM. The TGI with MOLT-4 leukemia was over 100 µM; with HOP-92 NSCLC, over 100 µM; with SF-268 CNS it was 6.42 µM; in the experiment on SF-295 CNS, 43.8 µM; in the experiment on NCI-H226 lung, 91.6 µM; with NCI-H23 lung it was over 100 µM. Besides, the TGI in the experiment with A498 renal, with HCT-116 colon, in the experiment with K-562 leukemia and in the experiment with LOX IMVI melanoma was over 100 µM in each case.

Consider `Cc1ccc2c(c1)C(C)Cc1c(ncnc1-n1cnc3ccccc31)N2C` (centres undefined), for which the GI50 is 0.426 µM with MOLT-4 leukemia; 6.76 µM with HOP-92 NSCLC; 1.19 µM in the experiment with SF-268 CNS; 0.189 µM in the experiment with SF-295 CNS; 3.5 µM with NCI-H226 lung; 0.727 µM in the experiment on NCI-H23 lung. The GI50 is 0.22 µM in the experiment on A498 renal, 0.407 µM in the experiment with HCT-116 colon, 0.0801 µM in the experiment on K-562 leukemia and 0.705 µM with LOX IMVI melanoma. Further, the TGI with MOLT-4 leukemia worked out at 15 µM; in the experiment with HOP-92 NSCLC it was 27.7 µM; with SF-268 CNS, 17.7 µM; in the experiment on SF-295 CNS, 11.8 µM; with NCI-H226 lung, 27.4 µM; in the experiment on NCI-H23 lung, 18 µM. Moreover, the TGI was determined as 17.1 µM in the experiment on A498 renal, 11.9 µM in the experiment on HCT-116 colon, 14.1 µM in the experiment with K-562 leukemia and 16.2 µM with LOX IMVI melanoma.

Regarding `CCOC(=O)c1ccc2[nH]c(-c3ccc(S(=O)(=O)F)cc3)cc(=O)c2c1`, the TGI in the experiment on MOLT-4 leukemia is over 100 µM; in the experiment on HOP-92 NSCLC, over 100 µM; in the experiment on SF-268 CNS, over 100 µM; with SF-295 CNS, over 100 µM; with NCI-H226 lung, over 100 µM; in the experiment with NCI-H23 lung it was 47 µM. Besides, the TGI was 68 µM in the experiment with A498 renal, 76.9 µM in the experiment on HCT-116 colon, over 100 µM in the experiment with K-562 leukemia and over 100 µM in the experiment on LOX IMVI melanoma.

With `O=C[C@@H](CO)O[C@H](C=O)c1c[nH]c(=O)[nH]c1=O`, the TGI stood at 605 µM with MOLT-4 leukemia; 237 µM with HOP-92 NSCLC; 427 µM in the experiment with SF-268 CNS; 1150 µM with SF-295 CNS; 552 µM with NCI-H226 lung; 539 µM in the experiment on NCI-H23 lung. Also, the TGI in the experiment on A498 renal came out at 744 µM; with HCT-116 colon, 513 µM; in the experiment with K-562 leukemia, 818 µM; in the experiment with LOX IMVI melanoma it was 886 µM.

Take `CCc1nc(N)nc(N)c1-c1ccc(NCCN)c([N+](=O)[O-])c1`: the TGI in the experiment on MOLT-4 leukemia is over 82.8 µM; with HOP-92 NSCLC, over 100 µM; in the experiment with SF-268 CNS, over 76.3 µM; in the experiment with SF-295 CNS, over 100 µM; in the experiment with NCI-H226 lung, over 100 µM; in the experiment on NCI-H23 lung, over 100 µM. In addition, the TGI in the experiment with A498 renal was over 86.1 µM; with HCT-116 colon, over 100 µM; with K-562 leukemia, over 100 µM; in the experiment on LOX IMVI melanoma it was over 100 µM.

Regarding `COC(=O)CCC(=O)C(=O)OC`, the GI50 in the experiment with MOLT-4 leukemia is 34800 µM; in the experiment on HOP-92 NSCLC it was 19300 µM; in the experiment on SF-268 CNS, 26400 µM; in the experiment with SF-295 CNS it was 42000 µM; in the experiment with NCI-H226 lung, 17300 µM; in the experiment with NCI-H23 lung it was 27400 µM. The GI50 with A498 renal is 18500 µM; in the experiment with HCT-116 colon, 30600 µM; in the experiment on K-562 leukemia, 33500 µM; in the experiment on LOX IMVI melanoma, 13300 µM. Moreover, the TGI in the experiment on HOP-92 NSCLC came out at 82200 µM; in the experiment with NCI-H226 lung, 65100 µM; with NCI-H23 lung, 95700 µM; with A498 renal, 39700 µM.

`Cc1ccc([N+](=O)[O-])cc1NC(=O)Nc1cccc(F)c1`: the GI50 in the experiment on MOLT-4 leukemia is 3.38 µM; in the experiment on HOP-92 NSCLC, 3.46 µM; in the experiment on SF-268 CNS it was 6.9 µM; in the experiment with SF-295 CNS, 2.46 µM; with NCI-H226 lung, 7.54 µM; in the experiment with NCI-H23 lung, 2.61 µM. For the same compound, the GI50 with A498 renal is 1.61 µM; in the experiment with HCT-116 colon, 3.53 µM; with K-562 leukemia, 2.63 µM; in the experiment with LOX IMVI melanoma it was 5.78 µM. The TGI in the experiment on MOLT-4 leukemia is over 100 µM; with HOP-92 NSCLC, 15.2 µM; in the experiment with SF-268 CNS it was over 100 µM; in the experiment on SF-295 CNS, 11 µM; with NCI-H226 lung, over 100 µM; in the experiment with NCI-H23 lung, over 100 µM. Moreover, the TGI is 9.76 µM with A498 renal, over 100 µM with HCT-116 colon, 71.4 µM with K-562 leukemia and over 100 µM in the experiment with LOX IMVI melanoma.
